For 14 compounds, Ki results are on record in US20100035873A1 (Pfizer Inc, priority 2008, published 2010).

This experiment concerns the target T1, human kappa opioid receptor (Homo sapiens, UniProt P41145).
T1 construct: expressed in transfected cells; host or cells: CHO cells
The experiment can be described thus: Binding assay, [3H]diprenorphine displacement on membranes from CHO cells (kappa assay). As to conditions: membranes from CHO cells expressing human kappa opioid receptor, ranges given when more than one data point. The procedure:
Binding assays on membranes from CHO cells expressing either human kappa, mu or delta opioid receptors were performed according to standard procedures. Briefly, frozen cell paste (70-80-mgs per 96 well plate) is homogenized in 50 mM Tris HCl buffer (pH 7.4 @ 4 degrees C.) containing 2.0 mM MgCl2 using a Polytron and spun in a centrifuge at 40,000 g for ten minutes. The final pellet is resuspended in assay buffer (50 mM Tris HCl buffer (pH 7.4) containing 1 mM EDTA, 5 mM MgCl2). Incubations were initiated by the addition of tissue to 96-well plates containing test drugs and 0.4-1 nM [3H]diprenorphine in a final volume of 250 ul). Non-specific binding was determined by radioligand binding in the presence of a saturating concentration of naltrexone (10 uM). After one hour incubation period at room temperature, assay samples were rapidly filtered through Whatman GF/B filters and rinsed with ice-cold 50 mM Tris buffer (pH 7.4). Membrane bound [3H]diprenorphine levels were determined by liquid scintillation counting of the filters in BetaScint. […] Ki values were calculated according to the Cheng Prusoff equation, Ki=IC50/(1+(L/Kd)), where L is the concentration of the radioligand used in the experiment and the Kd value is the dissociation constant for the radioligand (determined previously by saturation analysis).

Structures are written as SMILES.

T1 sequence (P41145 whole entry): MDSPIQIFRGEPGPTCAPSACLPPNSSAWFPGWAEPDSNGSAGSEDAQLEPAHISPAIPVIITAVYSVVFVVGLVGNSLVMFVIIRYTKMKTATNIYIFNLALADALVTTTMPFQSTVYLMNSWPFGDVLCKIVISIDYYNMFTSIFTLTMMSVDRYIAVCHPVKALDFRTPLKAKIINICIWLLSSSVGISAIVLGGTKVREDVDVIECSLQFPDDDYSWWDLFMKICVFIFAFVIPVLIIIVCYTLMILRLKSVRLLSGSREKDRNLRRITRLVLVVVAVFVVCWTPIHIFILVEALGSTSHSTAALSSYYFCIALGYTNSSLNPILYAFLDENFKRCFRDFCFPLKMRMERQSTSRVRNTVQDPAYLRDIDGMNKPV

`O=S(=O)(c1ncccc1-c1ccc(CNC2CC3CCC2C3)cc1)N1CCCC1` [Example 4t, (5S,6R)-Bicyclo[2.2.1]hept-2-yl-{4-[2-(pyrrolidine-1-sulfonyl)-pyridin-3-yl]-benzyl}-amine] came in with a Ki of 5.76 nM.
To `CC(C)CNCc1ccc(-c2ccccc2S(=O)(=O)N(C)C(C)C)cc1` [Example 4v, 4′-(Isobutylamino-methyl)-biphenyl-2-sulfonic acid isopropyl-methyl-amide] belongs 6.13 nM; to `O=S(=O)(c1cccnc1-c1ccc(CNC2C[C@@H]3CC[C@H]2C3)cc1)N1CCCC1` (stereo partly drawn) [Example 4x, (1S,4R)-Bicyclo[2.2.1]hept-2-yl-{4-[3-(pyrrolidine-1-sulfonyl)-pyridin-2-yl]-benzyl}-amine], 12.3 nM; to `O=S(=O)(c1ccccc1-c1ccc(CN2C[C@H]3CCC[C@@H]2C3)c(F)c1)N1CCCC1` [Example 4m, (1S,5R)-6-[3-Fluoro-2′-(pyrrolidine-1-sulfonyl)-biphenyl-4-ylmethyl]-6-aza-bicyclo[3.2.1]octane], 1.41 to 6.84 nM.
To `CC1(C)CCCN(Cc2ccc(-c3ccccc3S(=O)(=O)N3CCCC3)cc2)C1` [Example 4e, 3,3-Dimethyl-1-[2′-(pyrrolidine-1-sulfonyl)-biphenyl-4-ylmethyl]-piperidine] belongs 5.03 to 6.34 nM; to `O=S(=O)(c1ccccc1-c1ccc(CNC2CCOC2)cc1)N1CCCC1` (centres unmarked) [Example 4i, [2′-(Pyrrolidine-1-sulfonyl)-biphenyl-4-ylmethyl]-(tetrahydro-furan-3-yl)-amine], 6.59 to 13 nM.
Under `C[C@@H]1COCCN1S(=O)(=O)c1ccccc1-c1ccc(CNCCC(C)(C)C)cc1` [Example 4k, (3,3-Dimethyl-butyl)-[2′-((R)-3-methyl-morpholine-4-sulfonyl)-biphenyl-4-ylmethyl]-amine] stands 1.19 to 2.34 nM; under `CC(C)(C)CCNCc1ccc(-c2ncccc2S(=O)(=O)N2CCCC2)cc1` [Example 4w, (3,3-Dimethyl-butyl)-{4-[3-(pyrrolidine-1-sulfonyl)-pyridin-2-yl]-benzyl}-amine], 10.3 nM; under `O=S(=O)(c1ccccc1-c1ccc(CNC2C[C@H]3CC[C@@H]2C3)cc1)N1CCCC1` (stereo partly drawn) [Example 4a, (1R,4S)-Bicyclo[2.2.1]hept-2-yl-[2′-(pyrrolidine-1-sulfonyl)-biphenyl-4-ylmethyl]-amine], 0.58 to 0.66 nM.
Take `CC(C)CNCc1ccc(-c2ccccc2S(=O)(=O)N2CCC[C@H]2C)cc1F` [Example 4r, [3-Fluoro-2′-((R)-2-methyl-pyrrolidine-1-sulfonyl)-biphenyl-4-ylmethyl]-isobutyl-amine]: the inhibition constant (Ki) was in the range of 3.46 to 8.28 nM.
Under `COc1cc(-c2ccccc2S(=O)(=O)N2CCCC2)ccc1CNCC(C)C` [Example 4y, Isobutyl-[3-methoxy-2′-(pyrrolidine-1-sulfonyl)-biphenyl-4-ylmethyl]-amine] stands 12.5 to 24.8 nM; under `C[C@@H]1COCCN1S(=O)(=O)c1ccccc1-c1ccc(CNC2CC3CCC2C3)c(F)c1` (stereo partly drawn) [Example 4p, Bicyclo[2.2.1]hept-2-yl-[3-fluoro-2′-((R)-3-methyl-morpholine-4-sulfonyl)-biphenyl-4-ylmethyl]-amine], 2.68 to 6.78 nM.
`C[C@@H]1COCCN1S(=O)(=O)c1ccccc1-c1ccc(CNCCC(C)(C)C)c(F)c1` [Example 4o] registered a Ki of 2.11 to 5.08 nM.
To `CC(C)CNCc1ccc(-c2ccccc2S(=O)(=O)N2CCC[C@H]2C)cc1` [Example 4j, Isobutyl-[2′-((R)-2-methyl-pyrrolidine-1-sulfonyl)-biphenyl-4-ylmethyl]-amine] belongs 0.9 to 2.61 nM.

As usually defined, the Ki is a measure of affinity in units of concentration, obtained from inhibition or displacement. Read a high Ki as weaker binding.
